In patent publication US20060123501A1, “Method for treating inflammatory disorders” (priority 2004, published 2006):
Read-outs that look alike come from different tables or passages of the source.

B1: IL-7: cIAP2-inducing agent that imparts T cells with increased apoptotic resistance (protein, UniProt P13232 26-177, looked up)
Interleukin-7: DCDIEGKDGKQYESVLMVSIDQLLDSMKEIGSNCLNNEFNFFKRHICDANKEGMFLFRAARKLRQFLKMNSTGDFDLHLLKVSEGTTILLNCTGQVKGRKPAALGEAQPTKSLEENKSLKEQKKLNDLCFLKRLLQEIKTCWNKILMGTKEH

Assays:
[1] = test system: cIAP2−/− and control mice; conditions: LPS 0 μg/kg, D-galactosamine 0.6 g/kg i.p.
Text: In addition, we exposed cIAP2^−/− mice to a second mode of LPS-induced toxicity, where treatment with D-galactosamine (DGLBN) sensitized mice to endotoxic shock.

[2] = test system: spleen derived T cells; experiment: Dexamethasone-induced death of T cells pre-incubated with IL-7; type: cell-based, mouse; conditions: dexamethasone 100 nM
Protocol: Peritoneal-derived macrophages from cIAP2^−/− (lower panels) and cIAP2^+/+ mice (upper panels) were either pre-treated with LPS for 4 h or not pre-treated prior to exposure to α-Fas antibody and then TUNEL stained to assess cell viability (A). Percentages of viable cells (n=5, average of triplicate wells per mouse, P values were <0.01) are shown within each TUNEL stained panel along with the standard deviation. cIAP2^−/−-derived (open shapes) and cIAP2^+/+-derived (solid shapes) T cells were pre-incubated with a range of IL-7 concentrations and then exposed to dexamethasone and T cell survival was monitored over a 12 h period (B) (n=3, average of triplicate wells per mouse, results are mean±s.d., P values at the 12 h point were <0.05). Peritoneal-derived cell numbers are shown for macrophages of cIAP2^−/− mice and littermate control cIAP2^+/+ mice injected i.p. with LPS(C). […]
Confluent primary cultures of peritoneal-derived macrophages were either pre-treated with LPS (10 μg/ml, 4 h) or not pre-treated prior to exposure to α-Fas antibody (20 μg/ml, clone Jo2) and then TUNEL stained (Roche) to assess cell viability. Primary cultures of spleen derived T cells were pre-incubated with a range of IL-7 concentrations (0, 5, and 10 ng/ml) and then exposed to dexamethasone (100 nM) and T cell survival was monitored over a 12 h period.

Molecule	Survival ([1]; cIAP2+/+ mice)	Survival ([1]; cIAP2−/− mice)	Resistance to apoptosis with or without IL-7 pretreatment ([2]; cIAP2−/− T cells)	Resistance against dexamethasone-induced death after IL-7 pre-exposure ([2]; wild-type T cells, IL-7 5 or 10 ng/ml)
N[C@H]1C(O)O[C@H](CO)[C@H](O)[C@@H]1O (stereo partly drawn) [D-galactosamine]	6/6	6/6		
B1			displayed no difference in the resistance to apoptosis	showed a dose dependent resistance against dexamethasone-induced death
